Data taken from US5753694A, “Anticonvulsant derivatives useful in treating amyotrophic lateral sclerosis (ALS)” (Ortho Pharmaceutical Corporation, priority 1997, dated 1998).
Read-outs that look alike come from different tables or passages of the source.

Columns and labels:
[1] = system: AMPA/kainate subtype of glutamate receptors; assay: Antagonism of kainate-evoked currents, perforated whole-cell patch-clamp on primary cultures of hippocampal neurons; assay type: cell-based, rat; settings: for EC50: cultured fetal rat hippocampal neurons
Procedure: Johnson Pharmaceutical Research Institute, Internal Research Reports, Document ID Accession Numbers A500,960 and 398533:1). In these studies, primary cultures enriched in neurons derived from the hippocampus of fetal rats were grown in vitro for 14 to 21 days under conditions that allowed them to reach a high density and develop numerous synaptic contacts. Perforated whole-cell patch-clamp procedures were used to study electrical properties of the neuronal membranes. In this procedure electrical contact between the recording electrode and the intracellular fluid is achieved by using amphotericin B to form pores in the cell membrane. This enables the cell membrane potential or current flow across the cell membrane to be recorded accurately. Kainate, topiramate and other test compounds were microperfused onto the neurons using a multi-barrel Teflon concentration clamp pipette. Topiramate (dissolved in DMSO at 1M, then diluted in the medium in which the neurons were incubated) was applied at concentrations of […] kainate was applied at concentrations 0.1 or 1 mM.
In an initial set of experiments, the antagonistic action of topiramate on kainate-evoked currents was determined as a function of the membrane potential.
The time-course of topiramate's antagonistic activity was evaluated in a second set of experiments. Kainate was pulsed into the bathing fluid for 3 sec at 1 min intervals, and once a baseline for the kainate-evoked current was established topiramate was applied constantly for a period ranging from a few min to 20 min. […] Concentration-response curves were generated for both phases of topiramate's blocking effect. The EC50 was approximately 1 micromolar for each phase. However, the concentration required for a maximum response was approximately 0.1 mM for the first phase (phase I block) but only approximately 0.010 mM for second (phase II block).
Because of the compelling evidence that the functional state of glutamate receptors is regulated partly by protein kinases and phosphatases (L. Y. WANG, F. A. TAVERNA, X. P. HUANG, J. F. MACDONALD, and D. R. HAMPSON, Science 259, 1173-1175, 1993), the phase II blocking effect could be explained by dephosphorylation of the kainate-activated receptors. Based on evidence that cAMP-dependent protein kinase (PKA) modulates kainate activated receptors(L. Y. WANG, F. A. TAVERNA, X. P. HUANG, J. F. MACDONALD, and D. R. HAMPSON, Science 259, 1173-1175, 1993), a set of experiments was undertaken to determine if dibutyryl cyclic AMP could restore the excitatory activity of kainate subsequent to topiramate's phase II block; i.e., cause the "irreversible" effect to be reversed. […] In another set of experiments the nonspecific phosphatase inhibitor okadaic acid was applied at 1 micromolar prior to, and during, the application of topiramate to determine if inhibiting the dephosphorylation of the kainate activated receptors would prevent the phase II blocking effect of topiramate.

[2] = system: rodent models of epilepsy; settings: several rodent models of epilepsy; cited from earlier work
[3] = system: animal model of kindled epilepsy; settings: cited from earlier work
human epilepsy = settings: clinical trials of human epilepsy; cited from earlier work
[4] = 1 micromolar, prior to and during topiramate

C=C1[C@@H](O)[C@@H]2O[C@]3(CC[C@H](/C=C/[C@@H](C)[C@@H]4CC(C)=C[C@@]5(O[C@H](C[C@@](C)(O)C(=O)O)CC[C@H]5O)O4)O3)CC[C@H]2O[C@@H]1[C@@H](O)C[C@H](C)[C@H]1O[C@@]2(CCCCO2)CC[C@H]1C [okadaic acid]
effect on kainate-evoked current prior to application of topiramate ([1]; 1 micromolar): little effect | effect on topiramate's initial antagonistic effect (phase I block) [1, 4]: did not affect | effect on topiramate's phase II block [1, 4]: phase II block was prevented

CCCC(=O)Nc1ncnc2c1ncn2[C@@H]1O[C@@H]2COP(=O)(O)O[C@H]2[C@H]1OC(=O)CCC [dibutyryl cyclic AMP]
restoration of kainate-evoked current after topiramate's phase II block ([1]; applied subsequent to topiramate phase II block): partially or totally restored the kainate-evoked current

CC1(C)O[C@@H]2[C@@H](CO[C@@]3(COS(N)(=O)=O)OC(C)(C)O[C@@H]23)O1 [topiramate, 2,3:4,5-bis-O-(1-methylethylidene)-β-D-fructopyranosesulfamate]
block of seizures [2]: effectively block seizures | block of seizures [3]: effectively block seizures | EC50 ([1]; phase I block (early, reversible), read-out: EC50 of block of kainate-evoked current, first phase (phase I block)): ~1000 nM | EC50 ([1]; phase II block (constant application more than 10 min), read-out: EC50 of block of kainate-evoked current, second phase (phase II block)): ~1000 nM | onset of partial block of kainate-evoked current ([1]; kainate pulsed 3 sec at 1 min intervals, topiramate applied constantly): evident within one min | concentration required for a maximum response, phase I block ([1]; phase I block): approximately 0.1 mM | concentration required for a maximum response, phase II block ([1]; phase II block): approximately 0.010 mM | magnitude of antagonistic effect on kainate-induced membrane currents after prolonged application ([1]; topiramate applied constantly for more than 10 min): increased markedly | kainate-evoked current after withdrawal following prolonged application ([1]; topiramate applied more than 10 min, then withdrawn): remained depressed | reversibility of early block on washout ([1]; topiramate withdrawn (washed out) within 5 min): readily reversed | dependence of antagonistic effect on membrane potential ([1]; voltage-clamped potentials -60 mV to +60 mV at 20 mV increments): most effective at membrane potentials near the resting state | efficacy in simple and complex partial seizures and secondarily generalized seizures (human epilepsy): effective as adjunctive therapy or as monotherapy
